Data reported in PMC6492180, “Cytome micronucleus assays with a metabolically competent human derived liver cell line (Huh6): A promising approach for routine testing of chemicals?” (Environmental and Molecular Mutagenesis, 2018).
Where two headings read alike, the source gives them in different places. Marks after values point to notes of the source that are not given here.

Legend:
[1] = test system: Hep3B; settings: cited from earlier work
[2] = test system: HepG2; settings: cited from earlier work
[3] = ref IARC (2018); cited from earlier work
[4] = test system: Huh6 cells
Description: All experiments were performed in duplicate.
3.8–4.0 × 10^5 cells per well were seeded into 6‐well plates with 3 mL of RPMI (4% FBS) for 12 hr, then dilutions of stock solutions of the diagnostic mutagens were added for different time periods (4, 24, and 48 hr). In each experimental series solvent controls were included. Subsequently, the cells were washed twice with 3.0 mL medium. […] Finally, the cells were washed and trypsinised. Afterwards the cells were washed twice with 8.0 mL RPMI and collected on slides by cytocentrifugation (600 rpm, 5 min). The slides were air dried, fixed, and stained with DiffQuick according to the instructions of the manufacturer. For each experimental point, two cultures were tested per dose. From each culture ≥1,000 BN cells were evaluated under 400‐fold magnification (Nikon Photophot‐FXA, Tokyo, Japan). At least 2,000 binucleated cells were analyzed per dose for the determination of the different nuclear anomalies (MN, NBuds, and NBs).
The experiments were performed as described in the previous chapter. The cells were exposed only to one dose of the different mutagens and were cultivated after the seeding in 6‐well plates which contained 4% or 10% FBS in RPMI, respectively.
Data were evaluated by generalized linear model with Poisson counts. Chi‐square tests for overdispersion were applied. […] P values ≤0.05 were considered statistically significant.
^150-60 000 cells were seeded in 6 well plates with 3 ml RPMI (4% FBS), subsequently different solutions of the test compound (dissolved in medium) were added. After treatment for different time periods, the cells was washed and processed as described in the Material and Method section. […] From each culture 1000 binoculated cells were evaluated. BN-MN – number of micronucleated cells; MN - total number of micronuclei; CBPI – cytokinesis-block proliferation index
^1The experiments were conducted essentially as described in the footnote of Table S1A-I. *p≤0.05

[5] = test system: Human lymphocytes; settings: cited from earlier work
[6] = test system: HepaRG; settings: cited from earlier work
[7] = 10% FBS, 24 hr treatment, 100 µM
[8] = Human lymphocytes, + S9, ref Katic et al., 2010

## CN(C)N=O [NDMA, N‐nitrosodimethylamine]
[1]; Hep3B, ref Majer et al., 2004
  Lowest effective concentration (LOEC) in micronucleus experiments: Negative
  NOEC (highest no observable effect concentration tested): 180000 µM
[2]; HepG2, ref Majer et al., 2004
  Lowest effective concentration (LOEC) in micronucleus experiments: 30000 µM
[2]; HepG2, ref Natarajan and Darroudi (1991)
  MN induction after 28 hr compared with 1 hr exposure (in words): stronger effects
[2]; HepG2, ref Valentin‐Severin et al., 2003
  Lowest effective concentration (LOEC) in micronucleus experiments: 10000 µM
[3]
  IARC classification: Methylation of the DNA; activation: CYP2E1; IARC: Group 2A
[4]; 4% FBS
  MN effects after 24 hr (or longer) compared with 4 hr treatment (in words): more pronounced effects
[4]; 4% FBS, 4hrs, 50 mM
  BN-MN (number of micronucleated cells): 21.0 ± 1.4 ‰
  Bridges: 0.5 ± 0.7 ‰
  Buds: 16.5 ± 2.1 ‰
  CBPI: 1.7 ± 0.1
  MN (total number of micronuclei): 21.5 ± 0.7 ‰
[4]; 4% FBS, 4hrs, 100 mM
  BN-MN (number of micronucleated cells): 24.0 ± 2.8 ‰
  Bridges: 0.5 ± 0.7 ‰
  Buds: 20.0 ± 1.4 ‰
  CBPI: 1.7 ± 0.0
  MN (total number of micronuclei): 26.5 ± 0.7 ‰
[4]; 4% FBS, 4hrs, 200 mM
  BN-MN (number of micronucleated cells): 26.5 ± 2.1* ‰
  Bridges: 0.5 ± 0.7 ‰
  Buds: 25.5 ± 5.0* ‰
  CBPI: 1.5 ± 0.0
  MN (total number of micronuclei): 27.5 ± 0.7* ‰
[4]; 4% FBS, 24hrs, 25 mM
  BN-MN (number of micronucleated cells): 20.5 ± 0.7 ‰
  Bridges: 0.0 ± 0.0 ‰
  Buds: 7.0 ± 1.4 ‰
  CBPI: 1.8 ± 0.1
  MN (total number of micronuclei): 20.5 ± 0.7 ‰
[4]; 4% FBS, 24hrs, 50 mM
  BN-MN (number of micronucleated cells): 21.5 ± 5.0 ‰
  Bridges: 0.5 ± 0.7 ‰
  Buds: 9.5 ± 2.1* ‰
  CBPI: 1.8 ± 0.1
  MN (total number of micronuclei): 22.5 ± 3.5 ‰
[4]; 4% FBS, 24hrs, 100 mM
  BN-MN (number of micronucleated cells): 30.0 ± 2.8* ‰
  Bridges: 3.5 ± 0.7 ‰
  Buds: 13.0 ± 4.2* ‰
  CBPI: 1.7 ± 0.0
  MN (total number of micronuclei): 32.0 ± 2.8* ‰
[4]; 4% FBS, 48hrs, 25 mM
  BN-MN (number of micronucleated cells): 20.5 ± 0.7 ‰
  Bridges: 0.5 ± 0.7 ‰
  Buds: 23.0 ± 2.8 ‰
  CBPI: 1.8 ± 0.0
  MN (total number of micronuclei): 21.5 ± 2.1 ‰
[4]; 4% FBS, 48hrs, 50 mM
  BN-MN (number of micronucleated cells): 22.0 ± 4.2 ‰
  Bridges: 1.0 ± 1.4 ‰
  Buds: 27.0 ± 4.2 ‰
  CBPI: 1.8 ± 0.0
  MN (total number of micronuclei): 23.5 ± 5.0 ‰
[4]; 4% FBS, 48hrs, 100 mM
  BN-MN (number of micronucleated cells): 40.5 ± 2.1* ‰
  Bridges: 3.0 ± 1.4 ‰
  Buds: 35.5 ± 3.5* ‰
  CBPI: 1.7 ± 0.1
  MN (total number of micronuclei): 53.0 ± 4.2* ‰
[4]; [7]
  BN-MN (number of micronucleated cells): 33.0 ± 2.8*
  Bridges: 3.5 ± 0.7
  Buds: 28.0 ± 2.8
  CBPI: 1.9 ± 0.0
  MN (total number of micronuclei): 34.5 ± 5.0*
[4]; Huh6
  Lowest effective concentration (LOEC) in micronucleus experiments: 100000 µM
[5]; [8]
  Lowest effective concentration (LOEC) in micronucleus experiments: Negative
  NOEC (highest no observable effect concentration tested): 67500 µM

## Aflatoxin B1 [AFB1]
[1]
  Lowest effective concentration (LOEC) in micronucleus experiments: 0.5 (Majer et al., 2004) μM
[2]
  Lowest effective concentration (LOEC) in micronucleus experiments: 0.5 (Josse et al., 2012) μM
[4]
  Lowest effective concentration (LOEC) in micronucleus experiments: 10.0 µM
  MN effects after 24 hr (or longer) compared with 4 hr treatment (in words): similar
  MN frequencies with 10% serum compared with 4% serum (in words): stronger effects
[6]
  Lowest effective concentration (LOEC) in micronucleus experiments: 0.25 (Le Hegarat et al., 2010) μM
  MN formation with the longer exposure time, treatment for 1 or 7 days (in words): stronger effects
[5]
  Lowest effective concentration (LOEC) in micronucleus experiments: 0.1 + S9 (Miller et al., 1998) μM
